Data set [1] addresses T1, G9a (Homo sapiens, UniProt Q96KQ7).
T1 construct: made in house
T1 sequence (Q96KQ7 1-1210): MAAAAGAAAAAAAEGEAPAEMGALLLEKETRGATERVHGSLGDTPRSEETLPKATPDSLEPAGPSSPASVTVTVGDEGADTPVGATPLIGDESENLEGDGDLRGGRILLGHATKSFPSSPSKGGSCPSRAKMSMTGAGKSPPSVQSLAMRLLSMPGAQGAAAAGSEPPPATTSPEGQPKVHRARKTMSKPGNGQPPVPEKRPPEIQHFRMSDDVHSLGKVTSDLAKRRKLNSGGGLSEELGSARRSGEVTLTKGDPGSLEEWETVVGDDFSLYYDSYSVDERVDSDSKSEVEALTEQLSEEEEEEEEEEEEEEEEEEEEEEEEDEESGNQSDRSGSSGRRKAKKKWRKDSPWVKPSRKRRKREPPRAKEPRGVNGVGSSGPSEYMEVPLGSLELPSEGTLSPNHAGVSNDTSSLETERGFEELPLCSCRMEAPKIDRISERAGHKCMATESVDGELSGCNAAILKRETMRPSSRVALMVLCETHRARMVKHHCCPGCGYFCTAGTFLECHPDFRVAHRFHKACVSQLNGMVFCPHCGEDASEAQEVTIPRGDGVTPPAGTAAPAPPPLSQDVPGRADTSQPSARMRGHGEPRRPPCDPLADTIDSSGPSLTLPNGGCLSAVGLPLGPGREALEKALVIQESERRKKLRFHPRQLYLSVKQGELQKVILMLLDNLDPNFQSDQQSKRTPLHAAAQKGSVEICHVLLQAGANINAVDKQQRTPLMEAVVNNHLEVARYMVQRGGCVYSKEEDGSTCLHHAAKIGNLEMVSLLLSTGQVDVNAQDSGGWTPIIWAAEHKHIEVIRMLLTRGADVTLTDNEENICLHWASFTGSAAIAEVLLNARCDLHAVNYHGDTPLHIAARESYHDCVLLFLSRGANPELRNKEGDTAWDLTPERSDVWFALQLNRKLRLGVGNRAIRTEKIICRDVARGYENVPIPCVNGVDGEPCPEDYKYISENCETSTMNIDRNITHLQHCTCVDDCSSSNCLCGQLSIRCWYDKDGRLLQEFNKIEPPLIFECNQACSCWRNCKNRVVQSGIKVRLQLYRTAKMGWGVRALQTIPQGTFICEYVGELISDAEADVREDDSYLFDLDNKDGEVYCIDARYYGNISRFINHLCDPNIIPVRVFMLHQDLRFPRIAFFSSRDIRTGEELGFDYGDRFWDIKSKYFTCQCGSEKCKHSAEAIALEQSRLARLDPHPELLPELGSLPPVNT
In words: HKMT-inhibitor (HMT) assay, G9a. Type of data set: biochemical, Mammalian. As to conditions: recombinant HKMT, [3H]SAM, histone octamers or oligonucleosomes, average of duplicate. As to the method:
(§1) Compounds were initially screened for their ability to inhibit the activity of various lysine methyltransferases in vitro using a biochemical HMT-assay. Mammalian HKMTs were produced and purified as recombinant affinity-tagged proteins using a bacterial or baculovirus expression system.
(§2) The HKMT-inhibitor assay was as follows: In a final reaction volume of 25 μl, 50-100 ng recombinant HKMT protein was incubated at 30° C. for 60 minutes in a reaction buffer containing 50 mM Tris-HCl, pH 8.5, 5 mM MgCl2, 4 mM DTT, 1 μM [^3H]-labeled S-adenosyl-L-methionine ([^3H]SAM, 82.0 Ci/mmol, 1.0 mCi/ml, Amersham Pharmacia Biotech) and 2 μg of substrate (histone octamers or oligonucleosomes). A constant HKMT protein concentration was tested against increasing amounts of compound dissolved in DMSO. As a control an HKMT-inhibitor assay was performed in the presence of 0.5 μl of DMSO (end concentration of DMSO in the reaction= 2%). The reaction was stopped by the addition of 6 μl 5×SDS sample buffer (60 mM Tris-HCl, pH 6.8, 25% glycerol, 2% SDS, 0.05% bromphenol blue, 14.4 mM 6-Mercaptoethanol), and the proteins were separated on a 12% SDS-polyacrylamide gel. Proteins were transferred onto an Immobilon-P membrane (Millipore) and visualized by Coomassie blue staining. The membrane was then sprayed with EN3HANCE (NEN) and exposed to Kodak XAR film overnight. […]

The test system of data set [2] is global histone H4 lysine 20 monomethylation (H4K20me1). In words: Global histone lysine methylation pattern in treated cells, immunoblot, H4K20me1. The format is cell-based. As to conditions: HeLa cells, acid-extracted histones, immunoblotting. As to the method: (§3) Compounds that show low IC50 values for specific inhibition of single HKMTs were pre-selected for cell culture based toxicity and growth inhibition. HeLa cells were seeded in a concentration of 1×10^5 cell/ml in Dulbecco's modified Eagle medium supplemented with 10% Bovine serum, 2 mM glutamine, and penicillin-streptomycin solution. After 24 hours, the medium was supplemented with various compound concentrations. After an additional 48 hours, cells were harvested. Viable cells were stained with Trypan-Blue and counted. Based on the number of living cells treated with a compound in comparison to the cell number of cells treated with DMSO, a toxicity index was calculated for each compound.
(§4) Compounds with a low toxicity index were used for cell viability tests (FIG. 3). The cells harvested from this cell viability test were analyzed using two techniques. In the first technique, living cells were counted as described above and growth curves plotted for cells treated with DMSO or a given compound. (FIG. 4). In the second technique, histones were isolated from cells upon treatment of compounds, and their effect on global histone lysine methylation patterns was analyzed. Harvested cells were subjected to an acid extraction procedure for histones. […] Histones were resolved by SDS-PAGE, transferred to nitrocellulose, and analyzed by immunoblotting using histone-modification-state specific antibodies.
Background: Immunoblotting shows a protein as a band on a membrane.

The target in data set [3] is T2, EZH2 (Homo sapiens, UniProt Q15910).
T2 construct: made in house
T2 sequence (Q15910 whole entry, species assumed): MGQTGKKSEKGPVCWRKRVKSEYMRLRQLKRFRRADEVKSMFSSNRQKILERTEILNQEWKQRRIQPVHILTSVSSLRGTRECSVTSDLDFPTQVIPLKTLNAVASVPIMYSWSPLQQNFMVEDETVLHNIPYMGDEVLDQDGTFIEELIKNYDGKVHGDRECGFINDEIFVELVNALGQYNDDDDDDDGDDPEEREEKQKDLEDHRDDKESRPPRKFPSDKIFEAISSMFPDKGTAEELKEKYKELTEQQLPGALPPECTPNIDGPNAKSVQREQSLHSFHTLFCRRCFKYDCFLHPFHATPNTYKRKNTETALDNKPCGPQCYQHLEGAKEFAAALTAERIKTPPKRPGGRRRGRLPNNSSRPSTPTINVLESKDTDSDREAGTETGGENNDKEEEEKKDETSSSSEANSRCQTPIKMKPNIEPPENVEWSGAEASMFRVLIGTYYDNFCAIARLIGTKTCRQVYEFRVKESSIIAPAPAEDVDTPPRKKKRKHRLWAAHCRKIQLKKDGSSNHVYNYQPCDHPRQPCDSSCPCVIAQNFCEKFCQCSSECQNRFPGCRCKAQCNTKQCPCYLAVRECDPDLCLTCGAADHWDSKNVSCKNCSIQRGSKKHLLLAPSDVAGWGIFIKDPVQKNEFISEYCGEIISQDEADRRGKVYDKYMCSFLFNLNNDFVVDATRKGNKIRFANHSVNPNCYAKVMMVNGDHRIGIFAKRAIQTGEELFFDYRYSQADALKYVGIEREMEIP
T2 sequence (O75530 whole entry partner, species assumed): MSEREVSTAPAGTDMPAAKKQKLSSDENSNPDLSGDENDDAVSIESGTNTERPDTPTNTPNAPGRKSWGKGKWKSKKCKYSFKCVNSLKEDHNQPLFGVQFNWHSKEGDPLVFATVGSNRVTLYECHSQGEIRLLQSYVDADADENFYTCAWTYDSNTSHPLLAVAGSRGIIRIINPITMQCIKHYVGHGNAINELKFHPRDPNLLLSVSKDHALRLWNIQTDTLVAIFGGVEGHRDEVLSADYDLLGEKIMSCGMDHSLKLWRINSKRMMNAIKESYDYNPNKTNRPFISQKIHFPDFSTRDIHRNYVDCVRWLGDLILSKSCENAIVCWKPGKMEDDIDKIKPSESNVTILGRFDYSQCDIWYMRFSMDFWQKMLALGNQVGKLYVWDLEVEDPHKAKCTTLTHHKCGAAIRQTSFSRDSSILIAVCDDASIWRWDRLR
T2 sequence (Q15022 whole entry partner, species assumed): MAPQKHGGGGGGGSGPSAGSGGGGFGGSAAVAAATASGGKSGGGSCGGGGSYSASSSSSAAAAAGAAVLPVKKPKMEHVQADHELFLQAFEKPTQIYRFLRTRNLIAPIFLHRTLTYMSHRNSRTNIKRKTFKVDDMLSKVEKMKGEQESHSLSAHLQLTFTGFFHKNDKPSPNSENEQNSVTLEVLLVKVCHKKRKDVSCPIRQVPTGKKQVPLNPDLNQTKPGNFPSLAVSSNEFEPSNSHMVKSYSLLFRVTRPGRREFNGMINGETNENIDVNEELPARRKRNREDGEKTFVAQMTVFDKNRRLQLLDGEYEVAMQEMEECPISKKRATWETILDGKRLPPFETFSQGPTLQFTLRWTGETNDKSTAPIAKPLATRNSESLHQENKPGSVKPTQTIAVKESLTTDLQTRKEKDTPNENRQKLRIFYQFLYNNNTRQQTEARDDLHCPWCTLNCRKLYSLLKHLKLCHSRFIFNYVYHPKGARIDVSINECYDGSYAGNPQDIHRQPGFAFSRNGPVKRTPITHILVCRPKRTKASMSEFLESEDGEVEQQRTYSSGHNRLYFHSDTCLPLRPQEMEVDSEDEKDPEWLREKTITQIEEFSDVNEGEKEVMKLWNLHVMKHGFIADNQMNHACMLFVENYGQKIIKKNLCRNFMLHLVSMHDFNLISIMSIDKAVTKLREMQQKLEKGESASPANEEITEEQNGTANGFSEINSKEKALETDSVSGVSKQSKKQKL
Put plainly: HKMT-inhibitor (HMT) assay, EZH2. The note with it: meaning of the pair not explained. The format is biochemical, Mammalian. As to the method: as §1
The HKMT-inhibitor assay was as follows: In a final reaction volume of 25 μl, 50-100 ng recombinant HKMT protein was incubated at 30° C. for 60 minutes in a reaction buffer containing 50 mM Tris-HCl, pH 8.5, 5 mM MgCl2, 4 mM DTT, 1 μM [^3H]-labeled S-adenosyl-L-methionine ([^3H]SAM, 82.0 Ci/mmol, 1.0 mCi/ml, Amersham Pharmacia Biotech) and 2 μg of substrate (histone octamers or oligonucleosomes). A constant HKMT protein concentration was tested against increasing amounts of compound dissolved in DMSO. As a control an HKMT-inhibitor assay was performed in the presence of 0.5 μl of DMSO (end concentration of DMSO in the reaction= 2%). The reaction was stopped by the addition of 6 μl 5×SDS sample buffer (60 mM Tris-HCl, pH 6.8, 25% glycerol, 2% SDS, 0.05% bromphenol blue, 14.4 mM 6-Mercaptoethanol), and the proteins were separated on a 12% SDS-polyacrylamide gel. Proteins were transferred onto an Immobilon-P membrane (Millipore) and visualized by Coomassie blue staining. The membrane was then sprayed with EN3HANCE (NEN) and exposed to Kodak XAR film overnight. Coomassie blue stained histone bands were cut from the membrane and subjected to scintillation counting. All assays were performed in duplicate and the average of two experiments was used for the calculation of IC50 values. Only compounds with IC50<10 μM were selected for further experiments.

The test system of data set [4] is H3K27me3. In words: Global histone lysine methylation pattern in treated cells, immunoblot, other marks (H3K27me3). Type of data set: cell-based. The note with it: HeLa cells, acid-extracted histones, immunoblotting. As to the method: as §3, §4
Data set [5] has as its target T3, PRSET-7 (Homo sapiens, UniProt Q9NQR1).
T3 construct: made in house
T3 sequence (Q9NQR1 1-393): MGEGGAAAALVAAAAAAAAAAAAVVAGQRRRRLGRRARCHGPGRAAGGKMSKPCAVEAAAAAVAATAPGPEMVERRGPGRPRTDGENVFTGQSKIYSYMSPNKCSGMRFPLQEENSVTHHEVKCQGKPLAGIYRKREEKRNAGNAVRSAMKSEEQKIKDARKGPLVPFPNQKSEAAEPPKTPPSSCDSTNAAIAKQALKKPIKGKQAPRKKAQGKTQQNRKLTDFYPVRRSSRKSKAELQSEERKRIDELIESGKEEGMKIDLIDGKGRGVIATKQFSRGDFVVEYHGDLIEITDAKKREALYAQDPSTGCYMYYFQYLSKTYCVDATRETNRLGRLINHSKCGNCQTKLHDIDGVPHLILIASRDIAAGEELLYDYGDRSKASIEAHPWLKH
Put plainly: HKMT-inhibitor (HMT) assay, PRSET-7. The format is biochemical, Mammalian. As to conditions: recombinant HKMT, [3H]SAM, histone octamers or oligonucleosomes, average of duplicate. As to the method:
as §1, §2

Data set [6] addresses T4, SET7/9 (Homo sapiens, UniProt Q8WTS6).
T4 construct: made in house
T4 sequence (Q8WTS6 1-366): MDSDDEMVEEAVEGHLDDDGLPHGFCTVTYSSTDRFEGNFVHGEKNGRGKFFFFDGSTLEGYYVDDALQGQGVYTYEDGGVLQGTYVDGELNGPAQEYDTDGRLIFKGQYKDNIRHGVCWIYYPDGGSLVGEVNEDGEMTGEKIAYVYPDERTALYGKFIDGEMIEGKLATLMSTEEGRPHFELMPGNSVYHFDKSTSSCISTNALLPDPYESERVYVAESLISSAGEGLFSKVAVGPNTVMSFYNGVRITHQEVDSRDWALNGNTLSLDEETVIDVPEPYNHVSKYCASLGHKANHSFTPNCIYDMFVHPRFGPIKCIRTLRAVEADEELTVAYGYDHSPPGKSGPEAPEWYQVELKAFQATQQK
In words: HKMT-inhibitor (HMT) assay, SET7/9. As to conditions: recombinant HKMT, [3H]SAM, histone octamers or oligonucleosomes, average of duplicate. The format is biochemical, Mammalian. As to the method:
as §1, §2

[7] abbreviates: first of two values printed as x/y, read-out: IC50 EZH2 (first value of cell).
The mark [8] stands for this setting: second of two values printed as x/y, read-out: IC50 EZH2 (second value of cell).

Structures can show the parent of a compound that is named as a salt. Where two headings read alike, the source gives them in different places. A value given as a limit tells only on which side of the number the result lay.

On to `Cc1cc(O)c(C(C)C)cc1C1(c2cc(C(C)C)c(O)cc2C)OC(=O)c2ccccc21` [Thymolphthalein, thymolphthalein], for which the IC50 was more than 1450 µM in data set [1]; 25 µM in data set [3] (setting [7]); 400 µM in data set [3] (setting [8]); 9 µM in data set [5]; more than 1450 µM in data set [6]. Also, the “global histone H4 lysine 20 monomethylation (H4K20me1)” value in data set [2] is listed as “reproducible reduction”. Moreover, in data set [4], the “other histone methylation marks (e.g. H3K27me3)” value is “not affected”.

As to `Nc1cc(S(=O)(=O)O)cc2cc(S(=O)(=O)O)cc(O)c12` [H-acid], the IC50 in data set [1] is more than 500 µM; in data set [3] (setting [7]), 3 µM; in data set [3] (setting [8]) it was more than 1000 µM; in data set [5], 3.8 µM; in data set [6], more than 1380 µM.

As to `Nc1ccc2c(O)cc(C(=O)O)cc2c1` (as salt: hydrochloride) [Compound 1a, 7-amino-4-hydroxy-2-naphthoic acid], the melting point is > 250 °C (dec.).

Consider `CCOC(=O)c1cc2c3c(cccc3c1)NC(=O)O2` [Compound 6, ethyl 2,3-dihydro-2-oxonaphtho[1,8-de][1,3]oxazine-8-carboxylate], for which the melting point was > 250 °C (dec.).

One may read the IC50 as the point on the concentration scale where inhibition reaches its midpoint. The melting point is the temperature of the solid-liquid transition.

Values taken from patent US20090306201A1, “SELECTIVE INHIBITORS FOR TRANSFERASES” (University of Medicine and Dentistry of New Jersey, priority 2006, published 2009).
